Test results published in patent US10059741B2 (priority 2015, dated 2018).
“And” between values parts separate entries of the source, which are not always exact repeats. Equal values may be shown once. Read-outs that look alike come from different tables or passages of the source. Bridge positions count the residues as written; N and C are the ends. Square brackets hold non-standard residues; d marks the D form. Peptide text beside a SMILES is read from it. S5 = C=CCCC[C@](C)(N)C(=O)O; Nle = CCCC[C@H](N)C(=O)O; Aib = CC(C)(N)C(=O)O

How the values were obtained:
H7N9 A/Anhui/1/2013 = experiment: microbe, parasite or virus in culture; type: cell-based, influenza A virus
[1] = tested on: Influenza A H3N2 Influenza A/Brisbane/10/2007; experiment: microbe, parasite or virus in culture; type: cell-based, influenza A virus
[2] = tested on: Influenza B Brisbane/60/2008; experiment: Cytopathic effect (CPE) inhibition in MDCK cells, neutral red; type: cell-based
H1N1 A/PR/8/34 = conditions: read-out: EC50 (μM), Cytopathic effect by Neutral Red
H1N1 California/07/2009 [3] = experiment: microbe, parasite or virus in culture; type: cell-based, influenza A virus; conditions: read-out: EC50 (μM) H1N1 California/07/2009
[4] = tested on: H1N1 A/Solomon Island/03/2006; type: cell-based, influenza A virus; conditions: read-out: EC50 (μM), Cytopathic effect by Neutral Red
[5] = tested on: influenza virus, various viral strains; experiment: Influenza antiviral evaluation assay (CPE, neutral red dye uptake) in MDCK cells against various viral strains (Tables 8, 9); type: cell-based
[6] = tested on: Influenza A H1N1 Influenza A/California/7/2009; experiment: microbe, parasite or virus in culture; type: cell-based, influenza A virus
[7] = tested on: Influenza A H1N1 Influenza A/Texas/4/2009; experiment: microbe, parasite or virus in culture; type: cell-based, influenza A virus
[8] = tested on: Influenza B/Brisbane/60/2008; experiment: microbe, parasite or virus in culture; type: cell-based
H1N1 A/Brisbane/59/2007 = experiment: Cytopathic effect (CPE) inhibition in MDCK cells, neutral red; type: cell-based, influenza A virus
[9] = tested on: H5N1 A/Hong Kong/213/2003; experiment: microbe, parasite or virus in culture; type: cell-based, influenza A virus
H3N2 Perth/16/2009 [10] = experiment: microbe, parasite or virus in culture; type: cell-based, influenza A virus
[11] = mouse, in vivo
H1N1 California/07/2009 [12] = experiment: microbe, parasite or virus in culture; type: cell-based, influenza A virus
H3N2 Perth/16/2009 [13] = experiment: microbe, parasite or virus in culture; type: cell-based, influenza A virus; remark: listed apart in the source
[14] = tested on: Influenza B Florida/04/2006; experiment: Cytopathic effect (CPE) inhibition in MDCK cells, neutral red; type: cell-based
in vitro = conditions: dog
[15] = tested on: influenza virus, various viral strains; type: cell-based
[16] = read-out: EC50 (μM), Cytopathic effect by Neutral Red
[17] = read-out: EC50 (μM) H3N2 Perth/16/2009

CCCC[C@H](NC(C)=O)C(=O)N[C@@H](CC(=O)O)C(=O)N[C@H](C(=O)N[C@@H](CC(N)=O)C(=O)N[C@@]1(C)CCCC=CCCC[C@@](C)(C(=O)N[C@@H](CC(C)C)C(=O)N[C@@H](C)C(=O)N[C@H](C(=O)NC(C)(C)C(=O)N[C@@H](C)C(=O)N[C@@H](CCC(N)=O)C(N)=O)C(C)C)NC(=O)[C@H](CC(C)C)NC(=O)[C@H](CC(C)C)NC(=O)[C@H]([C@@H](C)O)NC1=O)C(C)C [SP-6] (Ac-[Nle]DVN[S5]TLL[S5]LAV[Aib]AQ-NH2; staple 5-9)
EC50 (H7N9 A/Anhui/1/2013; read-out: EC50): > 100 µM | EC50 (H7N9 A/Anhui/1/2013; [16]): > 50 µM | EC50 ([1]; read-out: EC50): > 100 µM | EC90 ([1]; read-out: EC90): > 100 µM | EC50 ([2]; read-out: EC50): 7.1 µM | EC50 [2, 16]: 1.5 to 10 µM | EC50 (H1N1 A/PR/8/34): 10 to 25 µM | EC50 (H1N1 California/07/2009 [3]): 10 to 25 µM | EC50 [4]: 1.5 to 10 µM and < 1.5 µM | antiviral activity across influenza strains [5]: broad antiviral activity | EC50 ([6]; read-out: EC50): > 100 µM | EC90 ([6]; read-out: EC90): > 100 µM | EC50 ([7]; read-out: EC50): > 100 µM | EC90 ([7]; read-out: EC90): > 100 µM | EC50 [8]: > 100 µM | EC90 [8]: > 100 µM | EC50 (H1N1 A/Brisbane/59/2007; read-out: EC50): 5.6 µM and 5.5 µM | EC50 (H1N1 A/Brisbane/59/2007; [16]): 1.5 to 10 µM | EC50 ([9]; read-out: EC50): > 100 µM | EC50 [9, 16]: > 50 µM | EC90 (H3N2 Perth/16/2009 [10]): 22 µM | EC50 (H3N2 Perth/16/2009 [10]; [17]): 25 to 50 µM | survival [11]: all mice survived | EC50 (H1N1 California/07/2009 [12]; read-out: EC50 (μM) H1N1 California/07/2009): 10 to 25 µM | EC90 (H1N1 California/07/2009 [12]; read-out: EC90): > 36 µM | EC50 (H3N2 Perth/16/2009 [13]; [17]): 25 to 50 µM | EC50 (H3N2 Perth/16/2009 [13]; [16]): 1.5 to 10 µM | EC50 ([14]; read-out: EC50): 18 µM | EC50 [14, 16]: 10 to 25 µM | CC50 (in vitro; CC50): > 100 µM | CC50 (in vitro; CC50 (μM) H1N1 California/07/2009, Cell cytotoxicity (CC), run with H1N1 California/07/2009): > 100 µM | CC50 (in vitro; CC50 (μM) H3N2 Perth/16/2009, Cell cytotoxicity (CC), run with H3N2 Perth/16/2009): > 100 µM | CC50 (in vitro; CC50, MDCK cells, run with Influenza A H1N1 Brisbane/59/2007, Neutral Red): > 100 µM | CC50 (in vitro; CC50, MDCK cells, run with Influenza A H1N1 Brisbane/59/2007, Visual): > 100 µM | CC50 (in vitro; CC50, MDCK cells, run with Influenza A H1N1 California/04/2009-M, Neutral Red): > 100 µM | CC50 (in vitro; CC50, MDCK cells, run with Influenza A H1N1 California/04/2009-M, Visual): > 100 µM | CC50 (in vitro; CC50, MDCK cells, run with Influenza A H1N1 California/07/2009, VYR/Neutral Red): > 100 µM | CC50 (in vitro; CC50, MDCK cells, run with Influenza A H1N1 Solomon Is./3/2006-M, Neutral Red): > 100 µM | CC50 (in vitro; CC50, MDCK cells, run with Influenza A H1N1 Solomon Is./3/2006-M, Visual): > 100 µM | CC50 (in vitro; CC50, MDCK cells, run with Influenza A H1N1 Solomon Is./03/2006, Neutral Red): > 100 µM | CC50 (in vitro; CC50, MDCK cells, run with Influenza A H1N1 Solomon Is./03/2006, Visual): > 100 µM | CC50 (in vitro; CC50, MDCK cells, run with Influenza A H3N2 Perth/16/2009, Neutral Red): > 100 µM | CC50 (in vitro; CC50, MDCK cells, run with Influenza A H3N2 Perth/16/2009, VYR/Neutral Red): > 100 µM | CC50 (in vitro; CC50, MDCK cells, run with Influenza A H3N2 Perth/16/2009, Visual): > 100 µM | CC50 (in vitro; CC50, MDCK cells, run with Influenza A H3N2 Victoria/3/75-M, Neutral Red): > 100 µM | CC50 (in vitro; CC50, MDCK cells, run with Influenza A H3N2 Victoria/3/75-M, Visual): > 100 µM | CC50 (in vitro; CC50, MDCK cells, run with Influenza B Brisbane/60/2008, Neutral Red): > 100 µM | CC50 (in vitro; CC50, MDCK cells, run with Influenza B Brisbane/60/2008, Visual): > 100 µM | CC50 (in vitro; CC50, MDCK cells, run with Influenza B Florida/04/2006, Neutral Red): 98 µM | CC50 (in vitro; CC50, MDCK cells, run with Influenza B Florida/04/2006, Visual): > 100 µM | CC50 (in vitro; CC50, MDCK cells, run with Influenza B Sichuan/379/99-M, Neutral Red): > 100 µM | CC50 (in vitro; CC50, MDCK cells, run with Influenza B Sichuan/379/99-M, Visual): > 100 µM | CC50 (in vitro; CC50, run with Influenza A H3N2 Perth/16/2006 (so in the source), Neutral Red): > 100 µM | CC50 (in vitro; CC50, run with Influenza A H3N2 Perth/16/2006 (so in the source), Visual): > 100 µM | EC50 [15]: > 100 µM | EC90 [15]: > 100 µM and 66 µM and 65 µM
